System: ATF4 luciferase reporter in HEK293T cells
Assay: ATF4-Luc assay (ATF4 luciferase reporter, tunicamycin-treated HEK293T cells)
Assay type: cell-based, human
Conditions: Homo sapiens, HEK-293T; HEK293T cells carrying the ATF4 luciferase reporter, 1 μg/mL tunicamycin, 7 hours
Experimental: In order to test exemplary compounds of the invention in a cellular context, a stable VWMD cell line was first constructed. The ATF4 reporter was prepared by fusing the human full-length ATF4 5′-UTR (NCBI Accession No. BC022088.2) in front of the firefly luciferase (FLuc) coding sequence lacking the initiator methionine as described in Sidrauski et al (eLife 2013). The construct was used to produce recombinant retroviruses using standard methods and the resulting viral supernatant was used to transduce HEK293T cells, which were then subsequently selected with puromycin to generate a stable cell line.
HEK293T cells carrying the ATF4 luciferase reporter were plated on polylysine coated 384-well plates (Greiner Bio-one) at 30,000 cells per well. Cells were treated the next day with 1 μg/mL tunicamycin and 200 nM of a compound of Formula (I) for 7 hours. Luminescence was measured using One Glo (Promega) as specified by the manufacturer. Cells were maintained in DMEM with L-glutamine supplemented with 10% heat-inactivated FBS (Gibco) and Antibiotic-Antimycotic solution (Gibco).
Table 2 below summarizes the EC50 data obtained using the ATF4-Luc assay for exemplary compounds of the invention.

Row | SMILES | EC50
1 | Cc1cc(OCC(=O)NC23CC(NC(=O)COc4ccc(Cl)c(F)c4)(C2)C3)cnc1C [Compound 234, 2-(4-chloro-3-fluorophenoxy)-N-(3-{2-[(5,6-dimethylpyridin-3-yl)oxy]acetamido}bicyclo[1.1.1]pentan-1-yl)acetamide] | 0.05 to 0.25 µM
2 | CC(C)(O)C1CC2(NC(=O)COc3ccc(Cl)c(F)c3)CCC1(NC(=O)COc1ccc(Cl)c(F)c1)CC2 (centres unmarked) [Compound 566, N,N′-[2-(2-hydroxypropan-2-yl)bicyclo[2.2.2]octane-1,4-diyl]bis[2-(4-chloro-3-fluorophenoxy)acetamide]] | 0.01 to 0.05 µM
3 | O=C(COCc1ccc(C(F)(F)F)nc1)NC12CC(NC(=O)COc3ccc(Cl)c(F)c3)(C1)C2 [Compound 284, 2-(4-chloro-3-fluorophenoxy)-N-[3-(2-{[6-(trifluoromethyl)pyridin-3-yl]methoxy}acetamido)bicyclo[1.1.1]pentan-1-yl]acetamide] | 0.01 to 0.05 µM
4 | O=C(COc1ccc(Cl)c(Cl)c1)NC12CC(NCC(O)c3ccc(Cl)cc3)(C1)C2 (centres unmarked) [Compound 288, N-(3-{[2-(4-chlorophenyl)-2-hydroxyethyl]amino}bicyclo[1.1.1]pentan-1-yl)-2-(3,4-dichlorophenoxy)acetamide] | 0.05 to 0.25 µM
5 | COc1cc(OCC(=O)NC23CCC(NC(=O)COc4ccc(Cl)c(F)c4)(CC2)C[C@@H]3O)ccc1Cl [Compound 528, 2-(4-chloro-3-fluorophenoxy)-N-{(3S)-4-[2-(4-chloro-3-methoxyphenoxy)acetamido]-3-hydroxybicyclo[2.2.2]octan-1-yl}acetamide] | < 0.01 µM
6 | O=C(COc1ccc(Cl)cc1)NC12CCC(NC(=O)COc3ccc(Cl)cc3)(CC1)C2 [Compound 527, N,N′-(bicyclo[2.2.1]heptane-1,4-diyl)bis[2-(4-chlorophenoxy)acetamide]] | 0.01 to 0.05 µM
7 | O=C(COc1ccc(Cl)c(F)c1)NC12CC(COc3ccc(C(F)F)cn3)(C1)C2 [Compound 613, 2-(4-chloro-3-fluorophenoxy)-N-[3-({[5-(difluoromethyl)pyridin-2-yl]oxy}methyl)bicyclo[1.1.1]pentan-1-yl]acetamide] | 0.5 to 2 µM
8 | CN(C)c1cccc(CCOCC(=O)NC23CC(NC(=O)COc4ccc(Cl)c(Cl)c4)(C2)C3)c1 [Compound 170, 2-(3,4-dichlorophenoxy)-N-[3-(2-{2-[3-(dimethylamino)phenyl]ethoxy}-acetamido)bicyclo[1.1.1]pentan-1-yl]acetamide] | > 2 µM
9 | CNC(CC(=O)NC12CCC(NC(=O)COc3ccc(Cl)c(F)c3)(CC1)[C@@H](O)C2)c1ccc(Cl)cc1 (stereo partly drawn) [Compound 712, N-{(3S)-4-[2-(4-chloro-3-fluorophenoxy)acetamido]-3-hydroxybicyclo[2.2.2]octan-1-yl}-3-(4-chlorophenyl)-3-(methylamino)propanamide] | 0.5 to 2 µM
10 | O=C(CCOCc1cccc(Cl)c1)NC12CC(NC(=O)COc3ccc(Cl)c(F)c3)(C1)C2 [Compound 163, N-{3-[2-(4-chloro-3-fluorophenoxy)acetamido]bicyclo[1.1.1]pentan-1-yl}-3-[(3-chlorophenyl)methoxy]propanamide] | 0.25 to 0.5 µM
11 | O=C(COc1ccc(Cl)c(F)c1)NC12CCC(NC(=O)COc3ccc4c(c3)OC(F)(F)O4)(CC1)C(O)C2 (centres unmarked) [Compound 305, 2-(4-chloro-3-fluorophenoxy)-N-(4-{2-[(2,2-difluoro-2H-1,3-benzodioxol-5-yl)oxy]acetamido}-3-hydroxybicyclo[2.2.2]octan-1-yl)acetamide] | < 0.01 µM
12 | CC(C)c1cc(OCC(=O)NC23CCC(NC(=O)COc4ccc(Cl)c(F)c4)(CC2)C[C@@H]3O)cc(C(C)C)c1 [Compound 496, 2-(4-chloro-3-fluorophenoxy)-N-[(3S)-4-{2-[3,5-di(propan-2-yl)phenoxy]acetamido}-3-hydroxybicyclo[2.2.2]octan-1-yl]acetamide] | 0.5 to 2 µM
13 | O=C(CCOc1ccc(Cl)c(F)c1)NC12CC(NC(=O)COc3ccc(Cl)c(F)c3)(C1)C2 [Compound 730, 3-(4-chloro-3-fluorophenoxy)-N-{3-[2-(4-chloro-3-fluorophenoxy)acetamido]bicyclo[1.1.1]pentan-1-yl}propanamide] | 0.01 to 0.05 µM
14 | O=C(COc1ccc(Cl)c(F)c1)NC12CC(NC(=O)Cc3ccncc3)(C1)C2 [Compound 459, 2-(4-chloro-3-fluorophenoxy)-N-{3-[2-(pyridin-4-yl)acetamido]bicyclo[1.1.1]pentan-1-yl}acetamide] | > 2 µM
15 | O=C(COc1ccc(Cl)c(F)c1)NC12CC(N(CCO)C(=O)COc3ccc(Cl)c(F)c3)(C1)C2 [Compound 190, 2-(4-chloro-3-fluorophenoxy)-N-{3-[2-(4-chloro-3-fluorophenoxy)acetamido]-bicyclo[1.1.1]pentan-1-yl}-N-(2-hydroxyethyl)acetamide] | 0.5 to 2 µM
16 | Cc1n[nH]c2cc(OCC(=O)NC34CC(NC(=O)COc5ccc(Cl)c(F)c5)(C3)C4)ccc12 [Compound 184, 2-(4-chloro-3-fluorophenoxy)-N-(3-{2-[(3-methyl-1H-indazol-6-yl)oxy]acetamido}bicyclo[1.1.1]pentan-1-yl)acetamide] | 0.05 to 0.25 µM
17 | O=C(COc1ccc(Cl)cc1)NC12CC(NC(=O)COc3ccc(Cl)c(Cl)c3)(C1)C2 [Compound 117, 2-(4-chlorophenoxy)-N-{3-[2-(3,4-dichlorophenoxy)acetamido]bicyclo-[1.1.1]pentan-1-yl}acetamide] | < 0.01 µM
18 | CCOc1ncc(OCC(=O)NC23CCC(NC(=O)COc4ccc(Cl)c(F)c4)(CC2)[C@@H](O)C3)cn1 [Compound 624, 2-(4-chloro-3-fluorophenoxy)-N-[(2S)-4-{2-[(2-ethoxypyrimidin-5-yl)oxy]acetamido}-2-hydroxybicyclo[2.2.2]octan-1-yl]acetamide] | < 0.01 µM
19 | O=C(COc1ccc2c(c1)OC(F)(F)O2)NC12CCC(NC(=O)COc3ccc(Cl)cc3)(CC1)[C@@H](O)C2 [Compound 799, 2-(4-chlorophenoxy)-N-[(2S)-4-{2-[(2,2-difluoro-2H-1,3-benzodioxol-5-yl)oxy]acetamido}-2-hydroxybicyclo[2.2.2]octan-1-yl]acetamide] | < 0.01 µM
20 | O=C(CNC(=O)OCc1ccccc1)NC12CC(NC(=O)COc3ccc(Cl)c(F)c3)(C1)C2 [Compound 304, benzyl [2-({3-[2-(4-chloro-3-fluorophenoxy)acetamido]bicyclo[1.1.1]pentan-1-yl}amino)-2-oxoethyl]carbamate] | 0.5 to 2 µM
21 | CC(O)(c1ccc(OCC(=O)NC23CC(NC(=O)COc4ccc(Cl)c(F)c4)(C2)C3)cc1)C(F)(F)F (centres unmarked) [Compound 413, 2-(4-chloro-3-fluorophenoxy)-N-(3-{2-[4-(1,1,1-trifluoro-2-hydroxypropan-2-yl)phenoxy]acetamido}bicyclo[1.1.1]pentan-1-yl)acetamide] | 0.25 to 0.5 µM
22 | O=C(COc1ccc(C(F)(F)F)c(F)c1)NC12CCC(NC(=O)COc3ccc4c(c3)OC(F)(F)O4)(CC1)[C@@H](O)C2 [Compound 773, 2-[(2,2-difluoro-2H-1,3-benzodioxol-5-yl)oxy]-N-[(2S)-4-{2-[3-fluoro-4-(trifluoromethyl)phenoxy]acetamido}-2-hydroxybicyclo[2.2.2]octan-1-yl]acetamide] | < 0.01 µM
23 | CN(C(=O)COc1ccc(C(F)(F)F)nc1)C12CCC(NC(=O)COc3ccc(Cl)c(F)c3)(CC1)C[C@@H]2O [Compound 377, N-{(2S)-4-[2-(4-chloro-3-fluorophenoxy)acetamido]-2-hydroxybicyclo[2.2.2]octan-1-yl}-N-methyl-2-{[6-(trifluoromethyl)pyridin-3-yl]oxy}acetamide] | 0.5 to 2 µM
24 | O=C(/C=C/c1ccc(Cl)cc1)NC12CC(NC(=O)COc3ccc(Cl)c(F)c3)(C1)C2 [Compound 294, (2E)-N-{3-[2-(4-chloro-3-fluorophenoxy)acetamido]bicyclo[1.1.1]pentan-1-yl}-3-(4-chlorophenyl)prop-2-enamide] | 0.01 to 0.05 µM
25 | COC(=O)C1CC2(NC(=O)COc3ccc(Cl)c(F)c3)CCC1(NC(=O)COc1ccc(Cl)c(F)c1)CC2 (centres unmarked) [Compound 569, methyl 1,4-bis[2-(4-chloro-3-fluorophenoxy)acetamido]bicyclo[2.2.2]octane-2-carboxylate] | < 0.01 µM
26 | Cc1cc(OCC(=O)NC23CCC(NC(=O)COc4ccc(Cl)c(C)c4)(CC2)[C@@H](O)C3)ccc1Cl [Compound 525, N,N′-[(2S)-2-hydroxybicyclo[2.2.2]octane-1,4-diyl]bis[2-(4-chloro-3-methylphenoxy)acetamide]] | < 0.01 µM
27 | O=C(/C=C/c1ccc(Cl)c(Cl)c1)NC12CC(NC(=O)COc3ccc(Cl)c(F)c3)(C1)C2 [Compound 348, (2E)-N-{3-[2-(4-chloro-3-fluorophenoxy)acetamido]bicyclo[1.1.1]pentan-1-yl}-3-(3,4-dichlorophenyl)prop-2-enamide] | 0.01 to 0.05 µM
28 | Cc1ccc(OCC(=O)NC23CC(NC(=O)COc4ccc(Cl)c(F)c4)(C2)C3)cc1 [Compound 460, 2-(4-chloro-3-fluorophenoxy)-N-{3-[2-(4-methylphenoxy)acetamido]bicyclo[1.1.1]pentan-1-yl}acetamide] | 0.01 to 0.05 µM
29 | O=C(COc1ccc(Cl)c(F)c1)NC12CC(NC(=O)Cc3ccccn3)(C1)C2 [Compound 448, 2-(4-chloro-3-fluorophenoxy)-N-{3-[2-(pyridin-2-yl)acetamido]bicyclo[1.1.1]pentan-1-yl}acetamide] | > 2 µM
